How the values were obtained:
Test in all cases: radiometric filter-binding kinase assay
[1] = tested on: AKT2 (human), P31751 [S474D]
AURKA (human) = AURKA (human) (UniProt O14965)
BRSK2 (human) = BRSK2 (human) (UniProt Q8IWQ3)
CAMKK2 (human) = CAMKK2 (human) (UniProt Q96RR4)
CHEK2 (human) = CHEK2 (human) (UniProt O96017)
CSNK2A1 (human) = CSNK2A1 (human) (UniProt P68400)
DYRK1A (human) = DYRK1A (human) (UniProt Q13627)
EEF2K (human) = EEF2K (human) (UniProt O00418)
FLT1 (human) = FLT1 (human) (UniProt P17948)
GCK (human) = GCK (human) (UniProt Q12851)
HIPK3 (human) = HIPK3 (human) (UniProt Q9H422)
IKBKB (human) = IKBKB (human) (UniProt O14920)
INSRR (human) = INSRR (human) (UniProt P14616)
LCK (mouse) = details: accession and sequence are those of the human protein
MAP2K1 (human) = MAP2K1 (human) (UniProt Q02750)
MAP3K5 (human) = MAP3K5 (human) (UniProt Q99683)
MAPK11 (human) = MAPK11 (human) (UniProt Q15759)
MAPK12 (human) = MAPK12 (human) (UniProt P53778)
MAPK14 (human) = MAPK14 (human) (UniProt Q16539)
MAPK15 (human) = MAPK15 (human) (UniProt Q8TD08)
MAPKAPK3 (human) = MAPKAPK3 (human) (UniProt Q16644)
MARK1 (human) = MARK1 (human) (UniProt Q9P0L2)
MARK3 (human) = MARK3 (human) (UniProt P27448)
MKNK1 (human) = MKNK1 (human) (UniProt Q9BUB5)
NUAK1 (human) = NUAK1 (human) (UniProt O60285)
[2] = tested on: PAK2 (human), Q13177 [T402E]
PIM2 (human) = PIM2 (human) (UniProt Q9P1W9)
PIM3 (human) = PIM3 (human) (UniProt Q86V86)
PRKCA (human) = PRKCA (human) (UniProt P17252)
ROCK2 (rat) = details: accession and sequence are those of the human protein
RPS6KA5 KD1 KD2 (human) = RPS6KA5 KD1 KD2 (human) (UniProt O75582)
[3] = tested on: RPS6KB1 (human), P23443 [T412E]
[4] = tested on: SGK1 (human), O00141 [S422D]
SRC (human) = SRC (human) (UniProt P12931)
TAOK1 (human) = TAOK1 (human) (UniProt Q7L7X3)

Sequence of GCK (human) (Q12851 whole entry, looked up): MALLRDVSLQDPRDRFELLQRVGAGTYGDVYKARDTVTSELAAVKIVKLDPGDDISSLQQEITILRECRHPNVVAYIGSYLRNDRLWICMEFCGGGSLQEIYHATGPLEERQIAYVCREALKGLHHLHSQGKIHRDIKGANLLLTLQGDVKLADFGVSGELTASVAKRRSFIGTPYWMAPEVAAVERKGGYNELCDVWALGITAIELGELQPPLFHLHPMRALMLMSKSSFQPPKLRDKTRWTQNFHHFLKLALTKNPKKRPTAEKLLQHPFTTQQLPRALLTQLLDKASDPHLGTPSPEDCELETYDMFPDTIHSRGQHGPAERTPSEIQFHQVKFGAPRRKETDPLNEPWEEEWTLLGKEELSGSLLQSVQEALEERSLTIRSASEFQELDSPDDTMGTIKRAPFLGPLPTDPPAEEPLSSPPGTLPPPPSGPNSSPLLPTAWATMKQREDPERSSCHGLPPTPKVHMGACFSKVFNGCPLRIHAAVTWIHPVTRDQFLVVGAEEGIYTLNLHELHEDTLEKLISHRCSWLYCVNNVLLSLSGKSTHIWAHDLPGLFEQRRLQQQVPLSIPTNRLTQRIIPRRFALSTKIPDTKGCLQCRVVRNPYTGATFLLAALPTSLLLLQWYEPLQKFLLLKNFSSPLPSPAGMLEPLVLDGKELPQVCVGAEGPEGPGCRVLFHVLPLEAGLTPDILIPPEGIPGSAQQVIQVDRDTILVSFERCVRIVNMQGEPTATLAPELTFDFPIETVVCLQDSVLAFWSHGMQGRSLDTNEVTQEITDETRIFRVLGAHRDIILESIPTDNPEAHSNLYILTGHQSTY
Sequence of NUAK1 (human) (O60285 whole entry, looked up): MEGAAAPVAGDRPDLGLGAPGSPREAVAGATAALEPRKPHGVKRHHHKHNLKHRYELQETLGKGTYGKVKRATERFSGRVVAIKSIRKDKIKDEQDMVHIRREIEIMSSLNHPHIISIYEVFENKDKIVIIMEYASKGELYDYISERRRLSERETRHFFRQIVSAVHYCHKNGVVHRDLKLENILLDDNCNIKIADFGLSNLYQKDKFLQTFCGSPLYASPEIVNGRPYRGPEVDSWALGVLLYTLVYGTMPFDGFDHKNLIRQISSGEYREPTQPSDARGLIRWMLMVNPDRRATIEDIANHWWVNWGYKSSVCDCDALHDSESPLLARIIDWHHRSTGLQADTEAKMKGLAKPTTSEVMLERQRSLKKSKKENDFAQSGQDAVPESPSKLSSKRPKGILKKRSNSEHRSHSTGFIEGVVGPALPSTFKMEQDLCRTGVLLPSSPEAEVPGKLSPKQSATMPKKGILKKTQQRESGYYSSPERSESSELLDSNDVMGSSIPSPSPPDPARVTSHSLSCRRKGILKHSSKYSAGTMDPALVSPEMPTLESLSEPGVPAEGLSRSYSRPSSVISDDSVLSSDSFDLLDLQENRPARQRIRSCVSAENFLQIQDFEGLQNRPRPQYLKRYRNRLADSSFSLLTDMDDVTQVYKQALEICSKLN
Sequence of AURKA (human) (O14965 whole entry, looked up): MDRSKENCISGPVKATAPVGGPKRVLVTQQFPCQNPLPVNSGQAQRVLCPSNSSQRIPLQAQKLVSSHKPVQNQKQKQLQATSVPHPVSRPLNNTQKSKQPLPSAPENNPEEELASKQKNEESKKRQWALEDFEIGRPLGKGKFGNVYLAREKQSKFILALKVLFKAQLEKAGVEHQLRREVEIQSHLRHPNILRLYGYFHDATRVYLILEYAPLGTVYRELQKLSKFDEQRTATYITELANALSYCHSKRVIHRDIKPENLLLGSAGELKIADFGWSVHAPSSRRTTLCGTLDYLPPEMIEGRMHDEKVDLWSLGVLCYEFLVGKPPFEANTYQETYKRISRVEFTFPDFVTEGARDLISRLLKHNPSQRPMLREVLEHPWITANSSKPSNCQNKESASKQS
Sequence of CSNK2A1 (human) (P68400 whole entry, looked up): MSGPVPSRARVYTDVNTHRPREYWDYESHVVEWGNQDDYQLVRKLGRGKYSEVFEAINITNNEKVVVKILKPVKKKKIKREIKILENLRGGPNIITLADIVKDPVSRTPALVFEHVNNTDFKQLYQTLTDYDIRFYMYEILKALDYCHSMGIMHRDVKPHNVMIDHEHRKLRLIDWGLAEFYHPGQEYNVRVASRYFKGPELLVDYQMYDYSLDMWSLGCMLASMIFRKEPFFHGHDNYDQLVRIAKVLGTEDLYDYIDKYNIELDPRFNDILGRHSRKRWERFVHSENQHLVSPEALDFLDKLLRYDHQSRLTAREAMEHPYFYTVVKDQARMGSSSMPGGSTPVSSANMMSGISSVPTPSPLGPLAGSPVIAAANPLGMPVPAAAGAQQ
Sequence of INSRR (human) (P14616 whole entry, looked up): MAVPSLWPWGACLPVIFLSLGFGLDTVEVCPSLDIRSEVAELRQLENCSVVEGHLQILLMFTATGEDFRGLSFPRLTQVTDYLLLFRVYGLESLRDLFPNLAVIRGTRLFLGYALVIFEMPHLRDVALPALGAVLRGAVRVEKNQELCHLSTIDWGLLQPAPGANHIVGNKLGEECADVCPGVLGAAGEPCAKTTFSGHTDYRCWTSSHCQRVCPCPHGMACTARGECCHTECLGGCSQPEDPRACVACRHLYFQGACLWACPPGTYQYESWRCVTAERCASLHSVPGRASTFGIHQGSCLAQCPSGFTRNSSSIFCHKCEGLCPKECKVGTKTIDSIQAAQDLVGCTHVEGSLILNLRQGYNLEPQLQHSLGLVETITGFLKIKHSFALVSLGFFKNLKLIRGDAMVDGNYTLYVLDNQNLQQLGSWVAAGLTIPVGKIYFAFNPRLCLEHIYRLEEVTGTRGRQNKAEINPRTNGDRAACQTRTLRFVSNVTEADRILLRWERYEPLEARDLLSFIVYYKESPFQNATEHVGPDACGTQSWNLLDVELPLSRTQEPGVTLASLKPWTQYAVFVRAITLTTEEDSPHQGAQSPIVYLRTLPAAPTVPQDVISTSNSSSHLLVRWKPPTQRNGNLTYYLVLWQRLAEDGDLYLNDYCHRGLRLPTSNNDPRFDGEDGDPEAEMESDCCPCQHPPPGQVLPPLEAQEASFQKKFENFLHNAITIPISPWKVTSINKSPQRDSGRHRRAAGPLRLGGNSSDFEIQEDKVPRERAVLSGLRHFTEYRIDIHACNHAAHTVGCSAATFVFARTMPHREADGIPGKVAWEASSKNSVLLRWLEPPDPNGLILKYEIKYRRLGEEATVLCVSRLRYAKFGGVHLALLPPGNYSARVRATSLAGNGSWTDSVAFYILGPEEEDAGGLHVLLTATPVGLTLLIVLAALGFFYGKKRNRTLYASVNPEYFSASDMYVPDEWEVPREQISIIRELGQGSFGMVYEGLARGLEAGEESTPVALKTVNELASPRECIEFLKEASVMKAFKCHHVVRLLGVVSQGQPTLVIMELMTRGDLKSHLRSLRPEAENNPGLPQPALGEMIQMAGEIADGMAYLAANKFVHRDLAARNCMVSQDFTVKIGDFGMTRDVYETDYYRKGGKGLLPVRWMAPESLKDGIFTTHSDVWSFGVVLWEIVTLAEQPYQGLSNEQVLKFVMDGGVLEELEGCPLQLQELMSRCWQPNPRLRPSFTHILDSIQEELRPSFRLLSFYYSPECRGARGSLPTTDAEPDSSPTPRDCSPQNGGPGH
Sequence of RPS6KB1 (human), P23443 [T412E] (P23443 whole entry T412E, looked up): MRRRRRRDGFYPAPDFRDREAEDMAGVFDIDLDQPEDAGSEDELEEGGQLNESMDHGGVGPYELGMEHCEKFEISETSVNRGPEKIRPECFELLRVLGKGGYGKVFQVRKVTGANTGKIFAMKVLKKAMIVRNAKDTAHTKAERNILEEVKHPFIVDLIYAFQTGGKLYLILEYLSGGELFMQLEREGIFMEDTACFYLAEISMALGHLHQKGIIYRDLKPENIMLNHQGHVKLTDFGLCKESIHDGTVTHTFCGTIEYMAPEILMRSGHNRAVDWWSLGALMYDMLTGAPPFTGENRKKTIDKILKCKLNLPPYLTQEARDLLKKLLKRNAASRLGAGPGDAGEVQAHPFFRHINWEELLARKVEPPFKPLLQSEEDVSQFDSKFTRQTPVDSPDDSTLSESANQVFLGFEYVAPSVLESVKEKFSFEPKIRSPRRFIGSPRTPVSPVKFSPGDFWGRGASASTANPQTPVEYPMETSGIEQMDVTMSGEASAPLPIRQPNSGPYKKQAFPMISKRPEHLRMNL

What does the source list for `O=C1c2ccccc2-c2n[nH]c3cccc1c23`?
residual activity ([1]; compound 1.0 µM): 104%; residual activity ([1]; compound 10.0 µM): 98%; residual activity (AURKA (human); compound 1.0 µM): 40%; residual activity (AURKA (human); compound 10.0 µM): 6%; residual activity (BRSK2 (human); compound 1.0 µM): 46%; residual activity (BRSK2 (human); compound 10.0 µM): 32%; residual activity (CAMKK2 (human); compound 1.0 µM): 45%; residual activity (CAMKK2 (human); compound 10.0 µM): 22%; residual activity (CHEK2 (human); compound 1.0 µM): 21%; residual activity (CHEK2 (human); compound 10.0 µM): 5%; residual activity (CSNK2A1 (human); compound 1.0 µM): 81%; residual activity (CSNK2A1 (human); compound 10.0 µM): 28%; residual activity (DYRK1A (human); compound 1.0 µM): 35%; residual activity (DYRK1A (human); compound 10.0 µM): 7%; residual activity (EEF2K (human); compound 1.0 µM): 94%; residual activity (EEF2K (human); compound 10.0 µM): 96%; residual activity (FLT1 (human); compound 1.0 µM): 29%; residual activity (FLT1 (human); compound 10.0 µM): 14%; residual activity (GCK (human); compound 1.0 µM): 13%; residual activity (GCK (human); compound 10.0 µM): 4%; residual activity (HIPK3 (human); compound 1.0 µM): 90%; residual activity (HIPK3 (human); compound 10.0 µM): 33%; residual activity (IKBKB (human); compound 1.0 µM): 75%; residual activity (IKBKB (human); compound 10.0 µM): 38%; residual activity (INSRR (human); compound 1.0 µM): 55%; residual activity (INSRR (human); compound 10.0 µM): 28%; residual activity (LCK (mouse); compound 1.0 µM): 95%; residual activity (LCK (mouse); compound 10.0 µM): 90%; residual activity (MAP2K1 (human); compound 1.0 µM): 67%; residual activity (MAP2K1 (human); compound 10.0 µM): 26%; residual activity (MAP3K5 (human); compound 1.0 µM): 19%; residual activity (MAP3K5 (human); compound 10.0 µM): 6%; residual activity (MAPK11 (human); compound 1.0 µM): 102%; residual activity (MAPK11 (human); compound 10.0 µM): 38%; residual activity (MAPK12 (human); compound 1.0 µM): 98%; residual activity (MAPK12 (human); compound 10.0 µM): 77%; residual activity (MAPK14 (human); compound 1.0 µM): 94%; residual activity (MAPK14 (human); compound 10.0 µM): 86%; residual activity (MAPK15 (human); compound 1.0 µM): 39%; residual activity (MAPK15 (human); compound 10.0 µM): 6%; residual activity (MAPKAPK3 (human); compound 1.0 µM): 113%; residual activity (MAPKAPK3 (human); compound 10.0 µM): 66%; residual activity (MARK1 (human); compound 1.0 µM): 68%; residual activity (MARK1 (human); compound 10.0 µM): 29%; residual activity (MARK3 (human); compound 1.0 µM): 41%; residual activity (MARK3 (human); compound 10.0 µM): 14%; residual activity (MKNK1 (human); compound 1.0 µM): 83%; residual activity (MKNK1 (human); compound 10.0 µM): 41%; residual activity (NUAK1 (human); compound 1.0 µM): 38%; residual activity (NUAK1 (human); compound 10.0 µM): 21%; residual activity ([2]; compound 1.0 µM): 92%; residual activity ([2]; compound 10.0 µM): 68%; residual activity (PIM2 (human); compound 1.0 µM): 78%; residual activity (PIM2 (human); compound 10.0 µM): 29%; residual activity (PIM3 (human); compound 1.0 µM): 33%; residual activity (PIM3 (human); compound 10.0 µM): 11%; residual activity (PRKCA (human); compound 1.0 µM): 78%; residual activity (PRKCA (human); compound 10.0 µM): 27%; residual activity (ROCK2 (rat); compound 1.0 µM): 75%; residual activity (ROCK2 (rat); compound 10.0 µM): 32%; residual activity (RPS6KA5 KD1 KD2 (human); compound 1.0 µM): 75%; residual activity (RPS6KA5 KD1 KD2 (human); compound 10.0 µM): 49%; residual activity ([3]; compound 1.0 µM): 75%; residual activity ([3]; compound 10.0 µM): 30%; residual activity ([4]; compound 1.0 µM): 72%; residual activity ([4]; compound 10.0 µM): 30%; residual activity (SRC (human); compound 1.0 µM): 81%; residual activity (SRC (human); compound 10.0 µM): 41%; residual activity (TAOK1 (human); compound 1.0 µM): 94%; residual activity (TAOK1 (human); compound 10.0 µM): 70%

Reference: the kinase profiling compilation of Christmann-Franck et al. (2016)
